Results: patent US6900019B1, “In-situ cell extraction and assay method” (Amersham Biosciences UK Limited, priority 1997, dated 2005)
“And” between values parts separate entries of the source, which are not always exact repeats. Identical values can stand only once.

Legend:
[1] = tested on: binding protein prepared from bovine adrenal cortex; assay: Radioreceptor binding assay for D-myo-inositol 1,4,5-trisphosphate (IP3) with lysis reagent and sequestrant; conditions: 0.5% w/v DTAB in standards, no sequestrant
Method: Bovine adrenal glands were removed from animals and stored at −20° C. before preparing the binding protein. The cortex was dissected from the adrenal glands, homogenised in NaHCO3 (20 mM) with dithiothreitol (1 mM), and the homogenate centrifuged at 5000 g for 15 minutes. The supernatant was centrifuged at 35000 g for 20 minutes, the resulting pellet resuspended in the homogenisation buffer and centrifuged again at 35000 g for 20 minutes. The final pellet was resuspended in homogenisaton buffer at a protein concentration of between 20-40 mg/ml.
For the assay, aliquots (100 μl) of the bovine adrenal cortex microsome preparation were incubated in 100 μl of 0.1M Tris buffer (pH9.0), containing 4 mM EDTA and 4 mg/ml bovine serum albumin. Incubations were carried out for 15 minutes in a final volume of 0.4 ml with [^3H] inositol 1,4,5-trisphosphate (100 μl; 6000 cpm) sample or standard (100 μl; 0.19-25 pmol inositol 1,4,5-trisphosphate/assay tube). Non-specific binding was determined in the presence of 1 nmol inositol 1,4,5-trisphosphate/tube. Incubations were terminated by centrifugation (12000 g) (10 minutes at 4° C.) and removal of the supernatant by gentle decantation. Particulate bound radioactivity was analysed, after suspension in 0.15M sodium hydroxide followed by neutralisation with 10% acetic acid, by liquid scintillation counting […]

[2] = tested on: rabbit anti-cAMP sera (antigen:antibody binding); assay: Scintillation proximity radioimmunoassay for cAMP: standard curves with lysis reagents and sequestrants
Method: All assays were carried out in microtitre plates compatible with a microtitre plate beta scintillation counter. Standards (50 μl; 0.2-12.8 pmol/well), antisera (50 μl; at 1:11000 dilution), tracer (50 ul; 10000-20000 cpm) are added to anti-rabbit coated SPA beads (50 μl; 20 mg/ml). Non-specific binding was determined in the absence of specific rabbit antisera. SPA anti-rabbit reagent is placed onto a magnetic stirrer to ensure a homogeneous suspension before pipetting. All wells contained a total volume of 200 μl. The plates were sealed and incubated at room temperature (15-30° C.) for 15-20 hours. The amount of [^125I]cAMP bound to the SPA fluomicrospheres was determined by counting in a microtitre plate beta scintillation counter for 2 minutes.
Experiments were set up with:— • a) Working standards (4-256 pmol/ml; 0.2-12.8 pmol/well) were prepared in assay buffer (0.05M sodium acetate buffer containing 0.01% sodium azide) only (control) or assay buffer containing lysis reagent (e.g. DTAB, CPC or SDS; see experiment 1) at various concentrations. • b) Rabbit anti-cAMP sera prepared in assay buffer only (control) or assay buffer containing sequestrating agent at various concentrations depending on the experiment. • c) Radioactive tracer: adenosine 3′ 5′-cyclic phosphoric acid 2′-O-succinyl-3-[^125I] iodotyrosine methyl ester prepared in assay buffer only (control) or assay buffer containing sequestrating agent at various concentrations depending on the experiment. • d) Donkey anti-rabbit IgG coupled to scintillation proximity fluomicrospheres prepared in assay buffer only (control) or assay buffer containing sequestrating agent at various concentrations depending on the experiment. Experiment 1: Inhibition of Antigen and Antibody Binding by Several Lysis Reagents Method
In these experiments, standard curves were prepared for cAMP using the SPA immunoassay technique, described above, where working standards of cAMP were prepared in several lysis reagents at 1% (w/v) or 2% (w/v) final concentration. The detergents investigated included dodecyl trimethyl ammonium bromide (DTAB; Sigma Chemical Co. D8638), benzethonium chloride (BZC; Aldrich; B470-8), cetyl pyridinium chloride (CPC; Sigma Chemical Co; C9002), sodium dodecyl sulphate (SDS, Sigma chemical Co; L4509) and N-dodecyl-N,N-dimethyl-3-ammonio-1-propanesulphonate (DDAPS; Sigma Chemical Co.; D4516).
In these experiments, standard curves for cAMP were prepared using the SPA immunoassay technique described above, where working standards of cAMP were prepared in 1% (w/v), 1.5% (w/v) or 2% (w/v) lysis reagents (DTAB, SDS or CPC). The control consisted of no lysis reagent or cyclodextrin added. The effect including 2.5% (w/v) alpha-cyclodextrin (alpha-CD) (Sigma Chemical Co.; C4642) on antigen:antibody binding was investigated. Here, tracer, antisera and SPA beads were prepared in assay buffer containing 2.5% (w/v) alpha-CD. A second control tested the effect of 2.5% (w/v) alpha-CD on the standard curve without addition of lysis reagent.
In this experiment, standard curves for cAMP were prepared using the SPA radioimmunoassay where working standards of cAMP were prepared in 1% (w/v) DTAB. The effect of including 1% (w/v), 2% (w/v), 2.5% (w/v) and 5% (w/v) alpha-cyclodextrin on antigen:antibody binding was investigated. Here, tracer, antisera and SPA beads were prepared in assay buffer containing alpha-CD at the above concentrations. The control consisted of no lysis or cyclodextrin added to the assay.
In this experiment, standard curves for cAMP were prepared using the SPA immunoassay technique where working standards were prepared 1% (wt) lysis reagent (DTAB). The effect of including 2.5% (w/v) alpha-cyclodextrin (CD) 2.5% (w/v) beta-cyclodextrin (beta-CD) (Sigma is Chemical Co.; C4767) and 2.5% (w/v) gamma-cyclodextrin (gamma-CD) (Sigma Chemical Co.; 4892) on antigen:antibody binding was investigated. […]

## CCCCCCCCCCCC[N+](C)(C)C.[Br-] [DTAB, dodecyl trimethyl ammonium bromide]
[1]
  binding of [3H]IP3 to the receptor preparation: total inhibition of binding
[2]; 1% lysis reagent, no sequestrant, 0.2 pmol cAMP/well
  [125I]cAMP bound to SPA beads, counts per minute: 1118 cpm and 1575 cpm
[2]; 1% lysis reagent, no sequestrant, 0.4 pmol cAMP/well
  [125I]cAMP bound to SPA beads, counts per minute: 1098 cpm and 1573 cpm
[2]; 1% lysis reagent, no sequestrant, 0.8 pmol cAMP/well
  [125I]cAMP bound to SPA beads, counts per minute: 1088 cpm and 1305 cpm
[2]; 1% lysis reagent, no sequestrant, 1.6 pmol cAMP/well
  [125I]cAMP bound to SPA beads, counts per minute: 977 cpm and 1097 cpm
[2]; 1% lysis reagent, no sequestrant, 3.2 pmol cAMP/well
  [125I]cAMP bound to SPA beads, counts per minute: 860 cpm and 813 cpm
[2]; 1% lysis reagent, no sequestrant, 6.4 pmol cAMP/well
  [125I]cAMP bound to SPA beads, counts per minute: 649 cpm and 619 cpm
[2]; 1% lysis reagent, no sequestrant, 12.8 pmol cAMP/well
  [125I]cAMP bound to SPA beads, counts per minute: 440 cpm and 439 cpm
[2]; 1% lysis reagent, no sequestrant, NSB (no specific antisera)
  [125I]cAMP bound to SPA beads, counts per minute: 130 cpm and 182 cpm
[2]; 1% lysis reagent, no sequestrant, Zero standard
  [125I]cAMP bound to SPA beads, counts per minute: 1429 cpm and 1586 cpm
[2]; 1.5% lysis reagent only, 0.2 pmol cAMP/well
  [125I]cAMP bound to SPA beads, counts per minute: 799 cpm
[2]; 1.5% lysis reagent only, 0.4 pmol cAMP/well
  [125I]cAMP bound to SPA beads, counts per minute: 713 cpm
[2]; 1.5% lysis reagent only, 0.8 pmol cAMP/well
  [125I]cAMP bound to SPA beads, counts per minute: 688 cpm
[2]; 1.5% lysis reagent only, 1.6 pmol cAMP/well
  [125I]cAMP bound to SPA beads, counts per minute: 513 cpm
[2]; 1.5% lysis reagent only, 3.2 pmol cAMP/well
  [125I]cAMP bound to SPA beads, counts per minute: 426 cpm
[2]; 1.5% lysis reagent only, 6.4 pmol cAMP/well
  [125I]cAMP bound to SPA beads, counts per minute: 376 cpm
[2]; 1.5% lysis reagent only, 12.8 pmol cAMP/well
  [125I]cAMP bound to SPA beads, counts per minute: 264 cpm
[2]; 1.5% lysis reagent only, NSB (no specific antisera)
  [125I]cAMP bound to SPA beads, counts per minute: 237 cpm
[2]; 1.5% lysis reagent only, Zero standard
  [125I]cAMP bound to SPA beads, counts per minute: 819 cpm
[2]; 2% lysis reagent, no sequestrant, 0.2 pmol cAMP/well
  [125I]cAMP bound to SPA beads, counts per minute: 231 cpm and 198 cpm
[2]; 2% lysis reagent, no sequestrant, 0.4 pmol cAMP/well
  [125I]cAMP bound to SPA beads, counts per minute: 231 cpm and 216 cpm
[2]; 2% lysis reagent, no sequestrant, 0.8 pmol cAMP/well
  [125I]cAMP bound to SPA beads, counts per minute: 201 cpm
[2]; 2% lysis reagent, no sequestrant, 1.6 pmol cAMP/well
  [125I]cAMP bound to SPA beads, counts per minute: 195 cpm and 179 cpm
[2]; 2% lysis reagent, no sequestrant, 3.2 pmol cAMP/well
  [125I]cAMP bound to SPA beads, counts per minute: 179 cpm and 176 cpm
[2]; 2% lysis reagent, no sequestrant, 6.4 pmol cAMP/well
  [125I]cAMP bound to SPA beads, counts per minute: 170 cpm and 144 cpm
[2]; 2% lysis reagent, no sequestrant, 12.8 pmol cAMP/well
  [125I]cAMP bound to SPA beads, counts per minute: 93 cpm and 78 cpm
[2]; 2% lysis reagent, no sequestrant, NSB (no specific antisera)
  [125I]cAMP bound to SPA beads, counts per minute: 145 cpm and 138 cpm
[2]; 2% lysis reagent, no sequestrant, Zero standard
  [125I]cAMP bound to SPA beads, counts per minute: 272 cpm and 217 cpm
